Results published in patent publication US20230265151A1, “GIP/GLP1 CO-AGONIST COMPOUNDS” (priority 2020, published 2023).
Where two headings read alike, the source gives them in different places.

How the values were obtained:
[1] = biological target: hGLP-1R (Homo sapiens, UniProt P43220); experiment: Functional cAMP formation (HTRF) in HEK-293 clonal cells expressing hGLP-1R, 0.1% bovine casein, without or with 1.0% human serum albumin; format: cell-based; parameters: expressed in transfected cells; details: 37° C.; for EC50: geometric mean, read-out: hGLP-1R EC50, nM (SEM, n); for Emax: percent of maximal response to GLP-1(7-36)NH2, read-out: hGLP-1R Emax, % ± SEM
Summary of the method: (§1)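 Cells were stimulated with peptide for 30 min at 37° C, then intracellular cAMP was measured by competitive HTRF (665/620 nm ratio) and converted to nM using a cAMP standard curve. Relative EC50 and Emax came from four-parameter logistic fits of percent maximal response against peptide concentration.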

[2] = biological target: T1, human GIP receptor (hGIPR) (Homo sapiens, UniProt P48546); experiment: [125I]-GIP binding, SPA with membranes of CHO cells expressing hGIPR; details: human GIPR; geometric mean (SEM, n); read-out: Binding Affinity Ki, nM (SEM, n) hGIPR
T1 construct: expressed in transfected cells; crude membranes
T1 sequence (P48546 22-466): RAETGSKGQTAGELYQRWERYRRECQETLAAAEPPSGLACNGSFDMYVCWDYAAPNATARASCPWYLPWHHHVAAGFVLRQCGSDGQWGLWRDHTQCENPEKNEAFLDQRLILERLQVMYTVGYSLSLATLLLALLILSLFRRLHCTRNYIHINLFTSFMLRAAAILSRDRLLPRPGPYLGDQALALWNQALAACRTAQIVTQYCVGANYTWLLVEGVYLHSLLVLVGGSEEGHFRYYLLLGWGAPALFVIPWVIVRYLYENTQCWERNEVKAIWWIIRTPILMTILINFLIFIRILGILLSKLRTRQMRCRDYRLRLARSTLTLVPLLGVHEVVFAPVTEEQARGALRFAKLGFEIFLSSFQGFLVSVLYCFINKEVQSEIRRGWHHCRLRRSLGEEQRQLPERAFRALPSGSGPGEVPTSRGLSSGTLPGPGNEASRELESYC

[3] = biological target: T2, human GLP-1 receptor (hGLP-1R) (Homo sapiens, UniProt P43220); experiment: [125I]-GLP-1 binding, SPA with membranes of HEK293 cells expressing hGLP-1R; details: human GLP-1R; geometric mean (SEM, n); read-out: Binding Affinity Ki, nM (SEM, n) hGLP-1R
T2 construct: expressed in transfected cells; crude membranes

[4] = biological target: T3, hGIPR (Homo sapiens, UniProt P48546); experiment: Functional cAMP formation (HTRF) in HEK-293 clonal cells expressing hGIPR, 0.1% bovine casein, without or with 1.0% human serum albumin; format: cell-based; details: 37° C.; for EC50: geometric mean, read-out: hGIPR EC50, nM (SEM, n); for Emax: percent of maximal response to GIP(1-42)NH2, read-out: hGIPR Emax, % ± SEM
T3 construct: expressed in transfected cells
T3 sequence (P48546 22-466): T1 sequence (P48546 22-466)
Summary of the method: as §1

[5] = biological target: T4, hGCGR (Homo sapiens, UniProt P47871); experiment: Functional cAMP formation (HTRF) in HEK-293 clonal cells expressing hGCGR, 0.1% bovine casein, without or with 1.0% human serum albumin; format: cell-based; details: read-out: hGCGR EC50, nM (SEM, n)
T4 construct: expressed in transfected cells
Summary of the method: as §1

[6] = 0.1% bovine casein and 1.0% human serum albumin
[7] = 0.1% bovine casein and 1.0% human serum albumin, 37° C., geometric mean
[8] = HEK293, cAMP, 0.1% bovine casein, arithmetic mean
[9] = cAMP, 0.1% bovine casein (no human serum albumin)
[10] = HEK293, cAMP, 0.1% bovine casein and 1.0% human serum albumin
[11] = cAMP, 37° C., 0.1% bovine casein (no human serum albumin), geometric mean
[12] = cAMP, 37° C., 0.1% bovine casein and 1.0% human serum albumin, geometric mean (SEM, n)
[13] = HEK293, 0.1% bovine casein and 1.0% human serum albumin

T2 sequence (P43220 24-463): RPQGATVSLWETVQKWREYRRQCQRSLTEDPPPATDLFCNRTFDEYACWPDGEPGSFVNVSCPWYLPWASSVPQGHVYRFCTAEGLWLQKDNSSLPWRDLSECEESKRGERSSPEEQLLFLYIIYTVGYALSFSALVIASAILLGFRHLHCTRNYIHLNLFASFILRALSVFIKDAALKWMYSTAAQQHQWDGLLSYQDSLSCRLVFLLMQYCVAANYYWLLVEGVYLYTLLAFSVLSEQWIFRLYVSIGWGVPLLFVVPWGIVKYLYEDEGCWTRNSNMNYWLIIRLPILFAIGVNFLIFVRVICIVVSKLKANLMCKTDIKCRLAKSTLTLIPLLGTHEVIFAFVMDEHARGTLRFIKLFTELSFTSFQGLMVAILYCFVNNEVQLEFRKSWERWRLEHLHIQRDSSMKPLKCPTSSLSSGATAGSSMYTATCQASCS
Chain of hGLP-1R (P43220 24-463): as above
T4 sequence (P47871 26-477): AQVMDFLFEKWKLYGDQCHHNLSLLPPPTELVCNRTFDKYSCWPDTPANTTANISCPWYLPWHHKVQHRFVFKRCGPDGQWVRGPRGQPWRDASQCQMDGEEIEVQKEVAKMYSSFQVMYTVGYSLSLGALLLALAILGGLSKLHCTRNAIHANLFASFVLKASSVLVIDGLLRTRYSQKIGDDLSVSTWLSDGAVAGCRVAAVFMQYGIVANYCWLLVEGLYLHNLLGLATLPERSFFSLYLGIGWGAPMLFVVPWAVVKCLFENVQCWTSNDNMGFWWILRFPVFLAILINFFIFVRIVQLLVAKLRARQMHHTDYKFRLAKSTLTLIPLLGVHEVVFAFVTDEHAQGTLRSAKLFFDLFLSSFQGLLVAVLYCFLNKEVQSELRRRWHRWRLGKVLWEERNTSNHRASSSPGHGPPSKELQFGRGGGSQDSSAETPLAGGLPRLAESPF

Row | Compound | EC50 [1, 6] | Ki [2] | Ki [3] | EC50 [4, 6] | EC50 [5, 7] | EC50 ([5]; cAMP, incubated at 37° C., 0.1% bovine casein (no human serum albumin), geometric mean) | Emax [1, 8] | EC50 [1, 9] | Emax [4, 10] | EC50 [4, 9] | EC50 [5, 11] | EC50 [5, 12] | Emax [1, 13] | Emax [4, 13]
1 | CCCCCCCCCCCCCCCC(=O)N[C@@H](CCC(=O)NCCOCCOCC(=O)NCCCC[C@H](NC(=O)CNC(=O)CNC(=O)[C@H](CCC(=O)O)NC(=O)[C@@H](NC(=O)[C@H](CC(C)C)NC(=O)[C@](C)(Cc1ccc(O)cc1)NC(=O)[C@@H](CCC(=O)O)NC(=O)[C@@H](NC(=O)[C@H](Cc1ccccc1)NC(=O)[C@H](CCC(=O)O)NC(=O)C(C)(C)NC(=O)[C@H](CCC(N)=O)NC(=O)[C@H](C)NC(=O)[C@H](CCCCNC(=O)COCCOCCNC(=O)CC[C@H](NC(=O)CCCCCCCCCCCCCCC)C(=O)O)NC(=O)[C@H](CCCN)NC(=O)[C@H](CC(=O)O)NC(=O)[C@H](CC(C)C)NC(=O)[C@](C)(CC(C)C)NC(=O)[C@@H](NC(=O)[C@H](CO)NC(=O)[C@H](Cc1ccncc1)NC(=O)[C@H](CC(=O)O)NC(=O)[C@H](CO)NC(=O)[C@@H](NC(=O)[C@](C)(Cc1ccccc1F)NC(=O)[C@@H](NC(=O)CNC(=O)[C@H](CCC(=O)O)NC(=O)C(C)(C)NC(=O)[C@@H](N)Cc1ccc(O)cc1)[C@@H](C)O)[C@@H](C)O)[C@@H](C)CC)[C@@H](C)CC)[C@@H](C)CC)C(=O)N[C@@H](CO)C(=O)N[C@@H](CO)C(=O)NCC(=O)N[C@@H](C)C(=O)N1CCC[C@H]1C(=O)N1CCC[C@H]1C(=O)N1CCC[C@H]1C(=O)N[C@@H](CO)C(N)=O)C(=O)O [Example 13] | 6.79 nM | 0.0575 nM | 0.691 nM | 1.45 nM | > 9950 nM | > 9950 nM |  |  |  |  |  |  |  | 
2 | CC[C@H](C)[C@H](NC(=O)[C@H](CC(C)C)NC(=O)[C@](C)(Cc1ccc(O)cc1)NC(=O)[C@H](CCCCNC(=O)CCOCCOCCOCCNC(=O)CC[C@H](NC(=O)CCCCCCCCCCCCC(=O)O)C(=O)O)NC(=O)[C@@H](NC(=O)[C@H](Cc1ccccc1)NC(=O)[C@H](CCCN)NC(=O)C(C)(C)NC(=O)[C@H](CCC(N)=O)NC(=O)[C@H](C)NC(=O)[C@H](CCC(N)=O)NC(=O)[C@H](CCCN)NC(=O)[C@H](CC(=O)O)NC(=O)[C@H](CC(C)C)NC(=O)[C@](C)(CC(C)C)NC(=O)[C@@H](NC(=O)C(C)(C)NC(=O)[C@H](Cc1ccncc1)NC(=O)[C@H](CC(=O)O)NC(=O)[C@H](CO)NC(=O)[C@@H](NC(=O)[C@](C)(Cc1ccccc1F)NC(=O)[C@@H](NC(=O)CNC(=O)[C@H](CCC(=O)O)NC(=O)C(C)(C)NC(=O)[C@@H](N)Cc1ccc(O)cc1)[C@@H](C)O)[C@@H](C)O)[C@@H](C)CC)[C@@H](C)CC)C(=O)N[C@@H](CCCCNC(=O)CCOCCOCCOCCNC(=O)CC[C@H](NC(=O)CCCCCCCCCCCCC(=O)O)C(=O)O)C(=O)NCC(=O)NCC(=O)N1CCC[C@H]1C(=O)N[C@@H](CO)C(=O)N[C@@H](CO)C(=O)NCC(=O)N[C@@H](C)C(=O)N1CCC[C@H]1C(=O)N1CCC[C@H]1C(=O)N1CCC[C@H]1C(=O)N[C@@H](CO)C(N)=O [Example 458] |  | 0.0232 nM | 0.266 nM |  |  |  | 111% | 0.179 nM | 93.1% | 0.0121 nM | > 9950 nM | > 9950 nM |  | 
3 | CCCCCCCCCCCC(=O)N[C@@H](CCC(=O)NCCOCCOCC(=O)NCCOCCOCC(=O)NCCOCCOCC(=O)NCCCC[C@H](NC(=O)[C@H](CCCN)NC(=O)[C@H](CC(=O)O)NC(=O)[C@H](CC(C)C)NC(=O)[C@](C)(CC(C)C)NC(=O)[C@@H](NC(=O)C(C)(C)NC(=O)[C@H](Cc1ccncc1)NC(=O)[C@H](CC(=O)O)NC(=O)[C@H](CO)NC(=O)[C@@H](NC(=O)[C@](C)(Cc1ccccc1F)NC(=O)[C@@H](NC(=O)CNC(=O)[C@H](CCC(=O)O)NC(=O)C(C)(C)NC(=O)[C@@H](N)Cc1ccc(O)cc1)[C@@H](C)O)[C@@H](C)O)[C@@H](C)CC)C(=O)N[C@@H](C)C(=O)N[C@@H](CCC(N)=O)C(=O)NC(C)(C)C(=O)N[C@@H](CCC(=O)O)C(=O)N[C@@H](Cc1ccccc1)C(=O)N[C@H](C(=O)N[C@H](CCC(=O)O)C(=O)N[C@@](C)(Cc1ccc(O)cc1)C(=O)N[C@@H](CC(C)C)C(=O)N[C@H](C(=O)N[C@@H](CCCCNC(=O)COCCOCCNC(=O)COCCOCCNC(=O)COCCOCCNC(=O)CC[C@H](NC(=O)CCCCCCCCCCC)C(=O)O)C(=O)NCC(=O)NCC(=O)N1CCC[C@H]1C(=O)N[C@@H](CO)C(=O)N[C@@H](CO)C(=O)NCC(=O)N[C@@H](C)C(=O)N1CCC[C@H]1C(=O)N1CCC[C@H]1C(=O)N1CCC[C@H]1C(=O)N[C@@H](CO)C(N)=O)[C@@H](C)CC)[C@@H](C)CC)C(=O)O [Example 423] |  | 0.0207 nM | 0.275 nM |  |  |  | 105% | 0.0721 nM | 89.7% | 0.00658 nM | > 9950 nM | > 9950 nM |  | 
4 | CCCCCCCCCCCC(=O)N[C@@H](CCC(=O)NCCOCCOCC(=O)NCCOCCOCC(=O)NCCCC[C@H](NC(=O)[C@H](CCCN)NC(=O)[C@H](CC(=O)O)NC(=O)[C@H](CC(C)C)NC(=O)[C@](C)(CC(C)C)NC(=O)[C@@H](NC(=O)C(C)(C)NC(=O)[C@H](Cc1ccncc1)NC(=O)[C@H](CC(=O)O)NC(=O)[C@H](CO)NC(=O)[C@@H](NC(=O)[C@](C)(Cc1ccccc1F)NC(=O)[C@@H](NC(=O)CNC(=O)[C@H](CCC(=O)O)NC(=O)C(C)(C)NC(=O)[C@@H](N)Cc1ccc(O)cc1)[C@@H](C)O)[C@@H](C)O)[C@@H](C)CC)C(=O)N[C@@H](C)C(=O)N[C@@H](CCC(N)=O)C(=O)NC(C)(C)C(=O)N[C@@H](CCCCNC(=O)COCCOCCNC(=O)COCCOCCNC(=O)CC[C@H](NC(=O)CCCCCCCCCCC)C(=O)O)C(=O)N[C@@H](Cc1ccccc1)C(=O)N[C@H](C(=O)N[C@H](CCC(=O)O)C(=O)N[C@@](C)(Cc1ccc(O)cc1)C(=O)N[C@@H](CC(C)C)C(=O)N[C@H](C(=O)N[C@@H](CCC(=O)O)C(=O)NCC(=O)NCC(=O)N1CCC[C@H]1C(=O)N[C@@H](CO)C(=O)N[C@@H](CO)C(=O)NCC(=O)N[C@@H](C)C(=O)N1CCC[C@H]1C(=O)N1CCC[C@H]1C(=O)N1CCC[C@H]1C(=O)N[C@@H](CO)C(N)=O)[C@@H](C)CC)[C@@H](C)CC)C(=O)O [Example 322] |  | 0.0162 nM | 0.234 nM |  | > 9950 nM |  | 100% | 0.144 nM |  | 0.00937 nM | > 9950 nM |  | 94.5% | 89.7%
